Where “and” joins values, the source holds several entries; their conditions need not be identical. Identical values can stand only once.
System: WM3248 melanoma cells, 486 antibodies
Experiment: Reverse phase protein arrays (RPPA)
Type: cell-based, Human
Details: normalized to 0
Text: Pellets were snap frozen in liquid nitrogen and shipped to MD Anderson Cancer Center core RPPA facility for RPPA analysis (Table S5). Three biological replicates for each sample were generated.
Nomenclatures on the RPPA heatmaps: name_of_antibody.species_of_antibody.status_of_antibody. V - antibody validated; C - validation of antibody in progress; Q - antibody nonspecific; E – under evaluation; antibodies raised in M - mouse, G - goat, R - rabbit, or T - rat.

CN(C)c1cccc(Nc2cc(-c3ccccc3)nc(C3CCNCC3)n2)c1 [ARN22089, N1,N1-dimethyl-N3-(6-phenyl-2-(piperidin-4-yl)pyrimidin-4-yl)benzene-1,3-diamine]
FoxO3a_pS318_S321.R.C Norm_10 Average (10, average): 1.029
G6PD.R.V Norm_10 Average (10, average): 1.034
GATA3.M.V Norm_10 Average (10, average): 1.281
GATA6.R.V Norm_10 Average (10, average): 1.018
GCLC.R.C Norm_10 Average (10, average): 0.996
GCLM.R.V Norm_10 Average (10, average): 1.023
GCN5L2.R.V Norm_10 Average (10, average): 0.928
GRB2.R.V Norm_10 Average (10, average): 0.887
GRB7.R.V Norm_10 Average (10, average): 0.924
GSK.3B.R.C Norm_10 Average (10, average): 0.899
GSK.3a.b.M.V Norm_10 Average (10, average): 1.031
GSK.3a.b_pS21_S9.R.V Norm_10 Average (10, average): 1.266
Gab2.R.V Norm_10 Average (10, average): 1.065
Gli1.R.C Norm_10 Average (10, average): 1.005
Gli3.R.C Norm_10 Average (10, average): 1.134
Glucocorticoid.Receptor.R.V Norm_10 Average (10, average): 1.119
Glutamate.D1.2.R.V Norm_10 Average (10, average): 1.156
Granzyme.B.R.V Norm_10 Average (10, average): 0.968
Grp75.R.C Norm_10 Average (10, average): 1.129
Gys.R.V Norm_10 Average (10, average): 0.931
Gys_pS641.R.V Norm_10 Average (10, average): 0.978
H2AX_pS139.R.C Norm_10 Average (10, average): 0.977
H2AX_pS140.M.C Norm_10 Average (10, average): 1.138
HER2.M.V Norm_10 Average (10, average): 1.033
HER2_pY1248.R.V Norm_10 Average (10, average): 0.915
HER3_pY1289.R.C Norm_10 Average (10, average): 1.047
HES1.R.V Norm_10 Average (10, average): 0.974
eEF2.R.C Norm_10 Average (10, average): 1.492
eEF2K.R.V Norm_10 Average (10, average): 1.201
eIF4E.R.V Norm_10 Average (10, average): 0.994
eIF4E_pS209.R.V Norm_10 Average (10, average): 0.960
eIF4G.R.C Norm_10 Average (10, average): 0.972
DNMT1.R.V Norm_10 (10, replicates 1-3): 1.003 and 1.020 and 1.147
DRP1.R.V Norm_10 (10, replicates 1-3): 0.964 and 0.992
DUSP4.R.V Norm_10 (10, replicates 1-3): 0.853 and 0.881 and 0.939
DUSP6.R.C Norm_10 (10, replicates 1-3): 1.409 and 0.561
DYRK1B.R.C Norm_10 (10, replicates 1-3): 0.895 and 0.964 and 0.986
Dvl3.R.V Norm_10 (10, replicates 1-3): 0.922 and 1.053 and 0.910
E2F1.R.V Norm_10 (10, replicates 1-3): 1.049 and 1.123 and 1.077
E.Cadherin.R.V Norm_10 (10, replicates 1-3): 0.791 and 0.958
EGFR.R.V Norm_10 (10, replicates 1-3): 0.866 and 1.059 and 1.002
EGFR_pY1068.R.C Norm_10 (10, replicates 1-3): 0.894 and 0.930 and 1.047
EGFR_pY1173.R.V Norm_10 (10, replicates 1-3): 1.016 and 0.963 and 0.929
EMA.M.C Norm_10 (10, replicates 1-3): 0.676 and 1.005
ENY2.M.C Norm_10 (10, replicates 1-3): 0.937 and 1.132
ER.a.R.V Norm_10 (10, replicates 1-3): 0.989 and 0.867 and 0.907
ER.a_pS118.R.V Norm_10 (10, replicates 1-3): 1.111 and 0.755 and 0.869
ERCC1.R.C Norm_10 (10, replicates 1-3): 0.934 and 1.208 and 0.991
ERCC5.R.C Norm_10 (10, replicates 1-3): 0.985 and 0.864
ERRalpha.R.V Norm_10 (10, replicates 1-3): 0.941 and 1.106 and 0.995
EVI1.R.V Norm_10 (10, replicates 1-3): 0.864 and 1.146 and 1.022
Elk1_pS383.R.C Norm_10 (10, replicates 1-3): 1.027 and 0.931
Enolase.1.R.V Norm_10 (10, replicates 1-3): 0.940 and 1.265 and 1.276
Enolase.2.R.V Norm_10 (10, replicates 1-3): 0.995 and 1.149 and 0.982
EphA2.R.V Norm_10 (10, replicates 1-3): 0.867 and 0.985 and 0.905
EphA2_pS897.R.C Norm_10 (10, replicates 1-3): 0.664 and 0.906 and 1.028
EphA2_pY588.R.C Norm_10 (10, replicates 1-3): 0.917 and 0.980 and 0.925
Erk5.R.V Norm_10 (10, replicates 1-3): 0.835 and 0.809 and 0.986
Ets.1.R.V Norm_10 (10, replicates 1-3): 1.099 and 1.361 and 1.457
FABP5.R.C Norm_10 (10, replicates 1-3): 0.950 and 1.278 and 1.483
FAK.R.C Norm_10 (10, replicates 1-3): 0.896 and 0.913 and 1.054
FAK_pY397.R.V Norm_10 (10, replicates 1-3): 0.925 and 1.035 and 0.946
FANCD2.R.V Norm_10 (10, replicates 1-3): 0.931 and 0.985 and 0.874
FASN.R.V Norm_10 (10, replicates 1-3): 1.108 and 0.851 and 0.928
FGF.basic.R.C Norm_10 (10, replicates 1-3): 0.849 and 0.905 and 1.085
FN14.R.C Norm_10 (10, replicates 1-3): 1.121
FOXM1.R.V Norm_10 (10, replicates 1-3): 0.803 and 0.992 (2×)
FOXO3.R.V Norm_10 (10, replicates 1-3): 0.977 and 1.253 and 1.014
FRS2.alpha_pY196.R.V Norm_10 (10, replicates 1-3): 0.953 and 2.062 and 1.103
FTO.R.V Norm_10 (10, replicates 1-3): 0.987 and 1.185 and 1.127
Fibronectin.R.V Norm_10 (10, replicates 1-3): 0.978 and 1.062 and 1.006
FoxO3a_pS318_S321.R.C Norm_10 (10, replicates 1-3): 0.963 and 1.140 and 0.984
G6PD.R.V Norm_10 (10, replicates 1-3): 0.932 and 1.169 and 1.001
GATA3.M.V Norm_10 (10, replicates 1-3): 1.235 and 1.401 and 1.207
GATA6.R.V Norm_10 (10, replicates 1-3): 1.020 and 1.082 and 0.952
GCLC.R.C Norm_10 (10, replicates 1-3): 0.939 and 0.967 and 1.083
GCLM.R.V Norm_10 (10, replicates 1-3): 0.965 and 1.111 and 0.992
GCN5L2.R.V Norm_10 (10, replicates 1-3): 0.997 and 0.898 and 0.890
GGPS1.M.V Norm_10 (10, replicates 1-3): 0.913 and 1.085 and 1.264
GRB2.R.V Norm_10 (10, replicates 1-3): 0.867 and 0.876 and 0.919
GRB7.R.V Norm_10 (10, replicates 1-3): 0.829 and 0.838 and 1.106
GSK.3B.R.C Norm_10 (10, replicates 1-3): 0.867 and 0.924 and 0.907
GSK.3a.b.M.V Norm_10 (10, replicates 1-3): 0.998 and 1.049
GSK.3a.b_pS21_S9.R.V Norm_10 (10, replicates 1-3): 1.903 and 0.801
Gab2.R.V Norm_10 (10, replicates 1-3): 1.165 and 1.098 and 0.933
Gli1.R.C Norm_10 (10, replicates 1-3): 0.913 and 0.965 and 1.136
Gli3.R.C Norm_10 (10, replicates 1-3): 1.151 and 1.082 and 1.169
Glucocorticoid.Receptor.R.V Norm_10 (10, replicates 1-3): 1.159 and 1.201 and 0.996
Glutamate.D1.2.R.V Norm_10 (10, replicates 1-3): 0.997 and 1.319 and 1.150
Glutaminase.R.C Norm_10 (10, replicates 1-3): 0.936 and 1.126 and 1.162
Granzyme.B.R.V Norm_10 (10, replicates 1-3): 1.207 and 0.777 and 0.921
Grp75.R.C Norm_10 (10, replicates 1-3): 1.100 and 1.356 and 0.930
Gys.R.V Norm_10 (10, replicates 1-3): 0.972 and 0.858 and 0.963
Gys_pS641.R.V Norm_10 (10, replicates 1-3): 0.959 and 0.885
H2AX_pS139.R.C Norm_10 (10, replicates 1-3): 0.952 and 0.894
H2AX_pS140.M.C Norm_10 (10, replicates 1-3): 0.944 and 1.316 and 1.153
HER2.M.V Norm_10 (10, replicates 1-3): 1.003 and 1.056
HER2_pY1248.R.V Norm_10 (10, replicates 1-3): 0.907 and 0.828 and 1.009
HER3.R.V Norm_10 (10, replicates 1-3): 0.945 and 1.026 and 0.936
HER3_pY1289.R.C Norm_10 (10, replicates 1-3): 1.083 and 1.014
HES1.R.V Norm_10 (10, replicates 1-3): 1.156 and 0.918 and 0.849
Heregulin.R.V Norm_10 (10, replicates 1-3): 0.988 and 0.972 and 0.854
eEF2.R.C Norm_10 (10, replicates 1-3): 1.541 and 1.276 and 1.659
eEF2K.R.V Norm_10 (10, replicates 1-3): 1.101 and 1.387 and 1.115
eIF4E.R.V Norm_10 (10, replicates 1-3): 1.636 and 0.500 and 0.846
eIF4E_pS209.R.V Norm_10 (10, replicates 1-3): 0.984 and 0.803
eIF4G.R.C Norm_10 (10, replicates 1-3): 0.963
DRP1.R.V Norm_20 Average (20, average): 0.964
DUSP4.R.V Norm_20 Average (20, average): 0.723
DUSP6.R.C Norm_20 Average (20, average): 1.555
Dvl3.R.V Norm_20 Average (20, average): 1.031
E2F1.R.V Norm_20 Average (20, average): 1.247
E.Cadherin.R.V Norm_20 Average (20, average): 0.854
EGFR.R.V Norm_20 Average (20, average): 1.132
EGFR_pY1068.R.C Norm_20 Average (20, average): 0.914
EGFR_pY1173.R.V Norm_20 Average (20, average): 1.048
EMA.M.C Norm_20 Average (20, average): 0.783
ENY2.M.C Norm_20 Average (20, average): 0.952
ER.a.R.V Norm_20 Average (20, average): 0.959
ER.a_pS118.R.V Norm_20 Average (20, average): 1.311
ERCC5.R.C Norm_20 Average (20, average): 1.110
ERRalpha.R.V Norm_20 Average (20, average): 0.963
EVI1.R.V Norm_20 Average (20, average): 0.976
Elk1_pS383.R.C Norm_20 Average (20, average): 1.105
Enolase.2.R.V Norm_20 Average (20, average): 0.948
EphA2.R.V Norm_20 Average (20, average): 0.748
EphA2_pS897.R.C Norm_20 Average (20, average): 0.630
EphA2_pY588.R.C Norm_20 Average (20, average): 0.974
Erk5.R.V Norm_20 Average (20, average): 0.917
Ets.1.R.V Norm_20 Average (20, average): 1.379
FABP5.R.C Norm_20 Average (20, average): 1.251
FAK.R.C Norm_20 Average (20, average): 0.978
FAK_pY397.R.V Norm_20 Average (20, average): 0.925
FANCD2.R.V Norm_20 Average (20, average): 0.851
FASN.R.V Norm_20 Average (20, average): 0.957
FGF.basic.R.C Norm_20 Average (20, average): 1.005
FN14.R.C Norm_20 Average (20, average): 1.106
FOXM1.R.V Norm_20 Average (20, average): 0.936
FRS2.alpha_pY196.R.V Norm_20 Average (20, average): 1.059
FTO.R.V Norm_20 Average (20, average): 1.058
Fibronectin.R.V Norm_20 Average (20, average): 1.193
FoxO3a_pS318_S321.R.C Norm_20 Average (20, average): 1.005
G6PD.R.V Norm_20 Average (20, average): 0.954
GATA3.M.V Norm_20 Average (20, average): 1.318
GATA6.R.V Norm_20 Average (20, average): 0.955
GCLC.R.C Norm_20 Average (20, average): 1.023
GCLM.R.V Norm_20 Average (20, average): 0.992
GCN5L2.R.V Norm_20 Average (20, average): 0.995
GGPS1.M.V Norm_20 Average (20, average): 1.022
GRB2.R.V Norm_20 Average (20, average): 0.934
GRB7.R.V Norm_20 Average (20, average): 0.995
GSK.3B.R.C Norm_20 Average (20, average): 0.882
GSK.3a.b.M.V Norm_20 Average (20, average): 0.925
GSK.3a.b_pS21_S9.R.V Norm_20 Average (20, average): 1.221
Gab2.R.V Norm_20 Average (20, average): 1.169
Gli3.R.C Norm_20 Average (20, average): 1.301
Glucocorticoid.Receptor.R.V Norm_20 Average (20, average): 1.170
Glutamate.D1.2.R.V Norm_20 Average (20, average): 1.186
Grp75.R.C Norm_20 Average (20, average): 1.195
Gys_pS641.R.V Norm_20 Average (20, average): 0.856
H2AX_pS139.R.C Norm_20 Average (20, average): 1.433
H2AX_pS140.M.C Norm_20 Average (20, average): 1.232
